Measured values: paper PMC3214044, “In Vitro Recombination of Non-Homologous Genes Can Result in Gene Fusions that Confer a Switching Phenotype to Cells” (PLoS ONE, 2011)

Assays:
[1] = test system: T1, c4; settings: read-out: Km (μM) / - Maltose; 10 mM sodium phosphate pH 7.0, 37°C, without maltose; BLA domain site; substrate range 100-400 µM, above the Km
T1 construct: gene malE

[2] = test system: T2, Ph8; settings: read-out: Km (μM) / - Maltose; 10 mM sodium phosphate pH 7.0, 37°C, without maltose; BLA domain site
T2 construct: gene malE

Compound: CC1(C)S[C@@H]2[C@H](NC(=O)[C@H](N)c3ccccc3)C(=O)N2[C@H]1C(=O)O [ampicillin]
- Km [1]: 73 ± 4 µM
- Km [2]: 730 ± 120 µM
